The values below come from patent US20040266794A1, “Pramipexole for the reduction of excessive food intake for children” (Boehringer Ingelheim International GmbH, priority 2003, published 2004).

Like-named read-outs stand apart in the source and are kept apart here.

The subject of test [1] is mice (Strain: C57BL/6). To be noted: C57BL/6 mice fasted 24 hours; single application given on successive days, 2.5 mg/kg of body weight s.c.; food consumption over 4 days; vs physiological saline; FIG. 1. The method, then: Test method by single administration:
(§1) 10 mice (Strain: C57BL/6) were deprived of food for 24 hours while being given free access to drinking water.
20 minutes before the end of the fasting period pramipexol was administered (2.5 mg/kg of body weight s.c.). The control group, also 10 mice, were given physiological saline solution, the solvent used for pramipexol. Then the animals were offered food and the food consumption over 4 days in 30 minute cycles was measured.

Test [2] concerns mice (Strain: C57BL/6). On the procedure: as §1

Regarding `CCCN[C@H]1CCc2nc(N)sc2C1` [Pramipexol], the food intake result is “did not significantly reduce food intake” in the test on mice (Strain: C57BL/6) [1] and “permanent, statistically highly significant inhibition in food intake” in the test with mice (Strain: C57BL/6) [2] (C57BL/6 mice fasted 24 hours, continuous administration by alzet Mini-osmotic pump s.c., 2.5 mg of pramipexol/24 hours, measured for 4 days, vs physiological saline, FIG. 1). For the same compound, in the test on mice (Strain: C57BL/6) [2] (C57BL/6 mice, continuous (long term) administration by osmotic pump s.c., measured daily over 22 days, administration ending after 14 days, FIG. 2), the change in weight entry was “permanent weight reduction was observed which was statistically highly significant even after the pramipexol treatment had ended”.
